Data reported in patent US9320276B2, “N-hetarylmethyl pyrazolylcarboxamides” (BAYER INTELLECTUAL PROPERTY GMBH, priority 2010, dated 2016).

Assays:
[1] = logP by HPLC on reversed-phase column (EEC Directive 79/831 Annex V.A8); format: physicochemical; conditions: 40° C., 0.1% aqueous formic acid and acetonitrile, linear gradient 10% to 90% acetonitrile
How it was run: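 Reversed-phase C18 HPLC at 40° C with 0.1% aqueous formic acid/acetonitrile, linear gradient 10% to 90% acetonitrile. LogP obtained from retention time by linear interpolation between successive unbranched alkan-2-ones (3 to 16 carbons) of known logP. Lambda-max taken from UV spectra at 200-400 nm at chromatographic peak maxima.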

[2] = tested on: Alternaria solani; assay: in vivo preventive test on Alternaria solani (tomato); conditions: 500 ppm of active ingredient, evaluated 7 days after inoculation
How it was run: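 Young tomato plants were sprayed preventively with compound in DMF/alkylarylpolyglycolether diluted in water, then inoculated one day later with A. solani spores. Incubation was 1 day at about 22 °C and 100% RH, then about 20 °C and 96% RH. Efficacy was scored 7 days after inoculation (0% = untreated control, 100% = no disease).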

[3] = tested on: Pyrenophora teres; assay: in vivo preventive test on Pyrenophora teres (barley); conditions: 500 ppm of active ingredient, evaluated 7-9 days after inoculation
How it was run: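 Young barley plants sprayed with compound in DMF/alkylaryl polyglycol ether emulsion; inoculated with P. teres spores one day later. 48 h at 22 °C, 100% humidity, then greenhouse ~20 °C, ~80% humidity; efficacy scored 7-9 days post-inoculation, 0% = untreated, 100% = no disease.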

[4] = tested on: Venturia inaequalis; assay: in vivo preventive test on Venturia inaequalis (apple scab); conditions: 100 ppm of active ingredient, evaluated 10 days after inoculation
Experimental: Solvent: 24.5 parts by weight of acetone • 24.5 parts by weight of N,N-dimethylacetamide Emulsifier: 1 part by weight of alkylaryl polyglycol ether To produce a suitable preparation of active compound, 1 part by weight of active compound is mixed with the stated amounts of solvent and emulsifier, and the concentrate is diluted with water to the desired concentration. To test for preventive activity, young plants are sprayed with the preparation of active compound at the stated rate of application. After the spray coating has dried on, the plants are inoculated with an aqueous conidia suspension of the causal agent of apple scab (Venturia inaequalis) and then remain for 1 day in an incubation cabinet at approximately 20° C. and a relative atmospheric humidity of 100%. The plants are then placed in a greenhouse at approximately 21° C. and a relative atmospheric humidity of approximately 90%. The test is evaluated 10 days after the inoculation. 0% means an efficacy which corresponds to that of the untreated control, while an efficacy of 100% means that no disease is observed.

[5] = tested on: Septoria tritici; assay: in vivo preventive test on Septoria tritici (wheat); conditions: 500 ppm of active ingredient, evaluated 21 days after inoculation
Experimental: Solvent: 49 parts by weight of N,N-dimethylacetamide Emulsifier: 1 part by weight of alkylaryl polyglycol ether To produce a suitable preparation of active compound, 1 part by weight of active compound or active compound combination is mixed with the stated amounts of solvent and emulsifier, and the concentrate is diluted with water to the desired concentration. To test for preventive activity, young plants are sprayed with the preparation of active compound or active compound combination at the stated rate of application. After the spray coating has been dried, the plants are sprayed with a spore suspension of Septoria tritici. The plants remain for 48 hours in an incubation cabinet at approximately 20° C. and a relative atmospheric humidity of approximately 100% and afterwards for 60 hours at approximately 15° C. in a translucent incubation cabinet at a relative atmospheric humidity of approximately 100%. The plants are placed in the greenhouse at a temperature of approximately 15° C. and a relative atmospheric humidity of approximately 80%. The test is evaluated 21 days after the inoculation. 0% means an efficacy which corresponds to that of the untreated control, while an efficacy of 100% means that no disease is observed.

[6] = tested on: Blumeria graminis fsp. hordei; assay: in vivo preventive test on Blumeria graminis (barley); conditions: 500 ppm of active ingredient, evaluated 7 days after inoculation
Experimental: Solvent: 49 parts by weight of N,N-dimethylacetamide Emulsifier: 1 part by weight of alkylaryl polyglycol ether To produce a suitable preparation of active compound, 1 part by weight of active compound or active compound combination is mixed with the stated amounts of solvent and emulsifier, and the concentrate is diluted with water to the desired concentration. To test for preventive activity, young plants are sprayed with the preparation of active compound or active compound combination at the stated rate of application. After the spray coating has been dried, the plants are dusted with spores of Blumeria graminis fsp. hordei. The plants are placed in the greenhouse at a temperature of approximately 18° C. and a relative atmospheric humidity of approximately 80% to promote the development of mildew pustules. The test is evaluated 7 days after the inoculation. 0% means an efficacy which corresponds to that of the untreated control, while an efficacy of 100% means that no disease is observed.

[7] = tested on: Leptosphaeria nodorum; assay: in vivo preventive test on Leptosphaeria nodorum (wheat); conditions: 500 ppm of active ingredient, evaluated 7-9 days after inoculation
Experimental: Solvent: 49 parts by weight of N,N-dimethylacetamide Emulsifier: 1 part by weight of alkylaryl polyglycol ether To produce a suitable preparation of active compound, 1 part by weight of active compound is mixed with the stated amounts of solvent and emulsifier, and the concentrate is diluted with water to the desired concentration. To test for preventive activity, young plants are sprayed with a preparation of active compound at the stated rate of application. One day after this treatment, the plants are inoculated with an aqueous spore suspension of Leptosphaeria nodorum. The plants remain for 48 hours in an incubation cabinet at 22° C. and a relative atmospheric humidity of 100%. Then the plants are placed in a greenhouse at a temperature of approximately 22° C. and a relative atmospheric humidity of approximately 90%. The test is evaluated 7-9 days after the inoculation. 0% means an efficacy which corresponds to that of the untreated control, while an efficacy of 100% means that no disease is observed.

[8] = HPLC on reversed-phase column (C 18)

Row | Structure (SMILES) | logP [1, 8] | logP ([1]; HPLC, reversed-phase column (C 18)) | Efficacy [2] [%] | Efficacy [3] [%] | Efficacy [4] [%] | Efficacy [5] [%] | Efficacy [6] [%] | Efficacy [7] [%]
1 | Cn1nc(C(F)F)c(C(=S)N(Cc2cccc3ccsc23)C2CC2)c1F [Example 95] | 3.83 | – | 95 | 100 | 99 | 80 | 100 | –
2 | CC(c1cc(Cl)sc1Cl)N(C(=O)c1c(C(F)F)nn(C)c1F)C1CC1 (stereo not shown) [Example 128] | 4.03 | – | 100 | 100 | 100 | 90 | 100 | 100
3 | Cc1sc(-c2ccccc2)cc1C(C)N(C(=O)c1c(C(F)F)nn(C)c1F)C1CC1 (stereo not shown) [Example 147] | 4.41 | – | 95 | 100 | 100 | 80 | 70 | 93
4 | CC(C)c1nn(-c2ccccc2)c(Cl)c1CN(C(=O)c1c(C(F)F)nn(C)c1F)C1CC1 [Example 169] | – | 3.94 | 100 | 100 | – | 100 | 100 | 100

The next lines start with results.

Row | logP [1, 8] | logP ([1]; HPLC, reversed-phase column (C 18)) | Structure (SMILES) | Efficacy [2] [%] | Efficacy [3] [%] | Efficacy [4] [%] | Efficacy [5] [%] | Efficacy [6] [%] | Efficacy [7] [%]
5 | 3.42 | – | CC(c1cc2ccccc2o1)N(C(=O)c1c(C(F)F)nn(C)c1F)C1CC1 (racemic) [Example 70] | 100 | 100 | 100 | 100 | 80 | 83
6 | 3.69 | – | CC(c1cc2ccccc2s1)N(C(=O)c1c(C(F)F)nn(C)c1F)C1CC1 (racemic) [Example 80] | – | 100 | 100 | 100 | 86 | 100
7 | 3.44 | – | CC(c1cccc2ccsc12)N(C(=O)c1c(C(F)F)nn(C)c1F)C1CC1 (stereo not shown) [Example 91] | 95 | 100 | 100 | 100 | 94 | 100
